The record followed here is US20030134774A1, “Methods for inhibiting cardiac disorders” (priority 2001, published 2003).

One assay concerns the target T1, PKC-ε (Rattus norvegicus, UniProt P09216).
T1 construct: PKCε is detected as a single band in quiescent cardiomyocytes; endogenous in cells; host or cells: cultured neonatal rat ventricular cardiomyocytes
T1 sequence (P09216 1-737): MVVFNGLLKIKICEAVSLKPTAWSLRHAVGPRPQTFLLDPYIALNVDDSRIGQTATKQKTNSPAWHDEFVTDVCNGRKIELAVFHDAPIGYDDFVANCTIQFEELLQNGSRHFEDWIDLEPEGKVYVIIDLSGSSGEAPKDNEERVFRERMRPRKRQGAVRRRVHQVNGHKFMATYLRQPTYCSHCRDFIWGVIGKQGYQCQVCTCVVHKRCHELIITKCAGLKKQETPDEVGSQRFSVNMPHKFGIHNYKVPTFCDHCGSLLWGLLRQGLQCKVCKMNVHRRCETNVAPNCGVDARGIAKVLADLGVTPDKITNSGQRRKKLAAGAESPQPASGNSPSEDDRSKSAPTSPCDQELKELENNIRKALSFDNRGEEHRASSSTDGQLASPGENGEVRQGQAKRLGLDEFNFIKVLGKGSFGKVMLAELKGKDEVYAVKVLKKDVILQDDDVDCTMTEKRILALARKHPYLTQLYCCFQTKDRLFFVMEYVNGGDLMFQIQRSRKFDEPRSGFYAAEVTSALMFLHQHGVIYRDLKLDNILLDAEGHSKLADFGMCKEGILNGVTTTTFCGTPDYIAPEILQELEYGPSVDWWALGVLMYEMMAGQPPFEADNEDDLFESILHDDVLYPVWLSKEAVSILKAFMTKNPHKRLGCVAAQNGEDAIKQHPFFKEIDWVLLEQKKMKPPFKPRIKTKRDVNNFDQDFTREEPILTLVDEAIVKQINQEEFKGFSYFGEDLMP
Kind of assay: Western blot with anti-phospho-PKC antibody in cardiomyocytes. The assay is classed as cell-based. On the procedure:
rPMT selectively activates nPKC isoforms. Cardiomyocyte cultures were incubated in culture medium without or with NE (10 μM), rPMT (400 ng/ml) or PMA (100 nM) for 24 hr (Panels A and C) or 5 min (Panel B). Soluble extracts were prepared and separated by SDS-PAGE followed by immunodetection of total PKC isoform abundance with antibodies that are specific for the individual PKC isoforms (Panel A), or phosphorylated forms of PKC (largely PKCε) with a pan-phospho-PKC antibody (Panels B and C), as described in Methods below. GF109203 was included at 5 μM 30 min prior to stimulation as indicated.
(§1) Specific immunoreactivity for individual PKC isoforms was quantified according to methods described previously. For assays of MAPKs and AKT, cells were exposed to test agents as indicated in individual experimental protocols, washed three times with ice-cold calcium/magnesium-free Dulbecco's PBS (pH 7.1), scraped into ice-cold extraction buffer [20 mM β-glycerophosphate pH 7.5, 20 mM sodium fluoride, 2 mM EDTA, 0.2 mM sodium vanadate, 10 μg/ml aprotinin, 25 μg/ml leupeptin, 50 μg/ml PMSF, and 0.3% (v/v) β-mercaptoethanol], lysed by sonication, and centrifuged at 10,000 g for 10 min at 4° C. The supernatant was diluted in SDS-PAGE sample buffer, boiled for 5 min, and stored at −70° C. Western blot analysis was performed with antibodies that are selective for the phosphorylated (activated) forms of ERK1/2, p38-MAPK, JNK, AKT, and pan-PKC according to manufacturer's instructions. For each panel in each Figure, the results are from a single gel exposed for a uniform duration. Bands were detected by enhanced chemiluminescence and blots were quantified by laser scanning densitometry.
A general note: Immunoblotting shows a protein as a band on a membrane.

Another assay concerns PKC isoforms. The experiment in a line: Immunoblot of PKC isoform partitioning and down-regulation in cardiomyocytes. In kind it is cell-based, rat. Conditions: 24 hr experiments. On the procedure:
rPMT selectively activates nPKC isoforms. […] Soluble extracts were prepared and separated by SDS-PAGE followed by immunodetection of total PKC isoform abundance with antibodies that are specific for the individual PKC isoforms (Panel A), or phosphorylated forms of PKC (largely PKCε) with a pan-phospho-PKC antibody (Panels B and C), as described in Methods below. GF109203 was included at 5 μM 30 min prior to stimulation as indicated.
Cells were maintained in culture in the presence of 10% FCS for 96 hr and then switched to serum-free medium for 24 hr prior to the addition of agonists as indicated. For PKC, extracts were prepared and subjected to SDS-PAGE to resolve individual isoforms according to methods described previously (14).
(§2) Specific immunoreactivity for individual PKC isoforms was quantified according to methods described previously. […] Bands were detected by enhanced chemiluminescence and blots were quantified by laser scanning densitometry.

The test system of another assay is ERK1/2. The experiment in a line: Phospho-ERK1/2 Western blot in cardiomyocytes. In kind it is cell-based, rat. The settings on record: cardiomyocytes; for effect on ERK phosphorylation/activation by rPMT: rPMT 400 ng/ml 24 hr. On the procedure: (§3) rPMT promotes the activation of ERK1/2, JNK and p38-MAPK cascades. Incubations were for 24 hr in the presence of the indicated concentrations of rPMT. PMA (100 nM, 5 min) and sorbitol ([…], 5 min) were included as positive controls. Cell lysates were subjected to SDS-PAGE followed by Western blotting as described in Methods below. Phosphorylated forms of ERK1/2 (A), p38 MAP kinase (B) or JNK (C) were detected by specific anti-phospho-ERK1/2, -p38 MAP kinase or -JNK antibodies, respectively. Blots were stripped and subjected to immunoblot analysis with total ERK1/2 or p38 MAP kinase to normalize for minor variations in protein loading (Panels A and B). Top: representative autoradiograms (with each lane from a single gel exposed for the same duration). Bottom: quantification of each series of experiments (n=3).
(§4) rPMT transactivation of the EGF receptor in cardiac fibroblasts, but not cardiomyocytes. Neonatal rat cardiomyocytes (Panel A) and cardiac fibroblasts (Panel B) were treated with rPMT (400 ng/ml) for 24 hr or EGF (50 ng/ml) for 5 min without or with AG1478 (2 μM, starting 30 min prior to stimulation). Cell lysates were subjected to SDS-PAGE followed by Western blotting with the anti-phospho-ERK1/2 antibody. Data are from a representative gel, with similar results obtained in 3 separate experiments.
as §1, with “The supernatant was diluted in SDS-PAGE sample buffer, boiled for 5 min, and stored at −70° C. Western blot analysis was performed with antibodies that are selective for the phosphorylated (activated) forms of ERK1/2, p38-MAPK, JNK, AKT, and pan-PKC according to manufacturer's instructions. For each panel in each Figure, the results are from a single gel exposed for a uniform duration.” left out

For the next assay, the system named is AKT. Kind of assay: Phospho-AKT and total AKT Western blot in cardiomyocytes. The assay is classed as cell-based, rat. As for the experimental part:
rPMT decreases basal AKT phosphorylation and prevents its phosphorylation by EGF. Neonatal rat cardiomyocytes were treated with rPMT (400 ng/ml) for 24 hr (Panel A), 48 hr (Panel B) or with EGF (50 ng/ml) for 5 min. Cell lysates were subjected to SDS-PAGE followed by Western blotting with antibodies that recognize the phosphorylated form or total AKT. Data are from representative gels, with similar results obtained in 3 separate experiments.
Panel A: Cells were treated with norepinephrine (NE, 10 μM) or PMA (100 nM) for 5 min without or with GF109203 (5 μM).
Panel B: Cells were treated with rPMT (400 ng/ml), NE (10 μM) or PMA (100 nM) for 24 hr without or with Go6983 (5 μM). […] Cell lysates were subjected to SDS-PAGE followed by Western blotting using a specific anti-phospho-AKT antibody. Data are from representative gels, with similar results obtained in 3 separate culture preparations.
as §1

Another assay concerns p38-MAPK. The experiment in a line: Phospho-p38 MAP kinase Western blot in cardiomyocytes. In kind it is cell-based, rat. The settings on record: rPMT 24 hr; sorbitol 5 min positive control. As for the experimental part: as §3, §2
A further assay deals with JNK. The experiment in a line: Phospho-JNK Western blot in cardiomyocytes. The assay is classed as cell-based, rat. The settings on record: rPMT 24 hr; sorbitol 5 min positive control. As for the experimental part: as §3, §2
Assay [1] concerns ERK1/2 in cardiac fibroblasts. Kind of assay: Phospho-ERK1/2 Western blot in cardiac fibroblasts. In kind it is cell-based, rat. Conditions: AG1478 2 μM. As for the experimental part: as §4
Cardiac myocytes were dissociated from the ventricles of two-day-old Wistar rats by a trypsin digestion protocol which incorporates a differential attachment procedure to enrich for cardiac myocytes, as described previously (13). For some experiments, attached cells were maintained as fibroblast cultures. For studies of inositol phosphates, MAPKs, AKT, and PKC cardiomyocytes were plated at a density of 5×10^5 cells per ml (2 ml per 35-mm dish; 1 ml per 22.1-mm dish) and were cultured in MEM supplemented with 10% fetal calf serum. […]
as §2

Take `CN(C)CCCn1cc(C2=C(c3c[nH]c4ccccc34)C(=O)NC2=O)c2ccccc21` [GF109203, reference compound]: the “effect on appearance of the more highly phosphorylated PKC-ε band induced by NE or PMA” value on PKC-ε (inhibitor 5 μM, 30 min prior to stimulation) is listed as “prevented”. In addition, in the assay on PKC isoforms, the “inhibition of PMA-dependent down-regulation of PKC isoforms” value was “did not”. For the same compound, the “effect on ERK phosphorylation/activation by rPMT” value in the assay on ERK1/2 was “markedly inhibited”. Also, in the assay on AKT (GF109203 5 μM, 5 min PMA), the “effect on inhibitory modulation of AKT phosphorylation by PMA” value is listed as “prevented”.

As for `COc1ccc2c(c1)c(C1=C(c3c[nH]c4ccccc34)C(=O)NC1=O)cn2CCCN(C)C` [Go6983, reference compound], in the assay with PKC isoforms, the “inhibition of PMA-dependent down-regulation of PKC isoforms” value is “completely inhibited”. Further, the “effect on negative regulation of AKT by rPMT” value in the assay on AKT (Go6983 5 μM, 24 hr) is “abrogates”.

In the case of `CCCCCCCCCCCCCC(=O)O[C@@H]1[C@@H](C)[C@@]2(O)[C@@H](C=C(CO)C[C@]3(O)C(=O)C(C)=C[C@@H]23)[C@@H]2C(C)(C)[C@]12OC(C)=O` [PMA, reference compound], on PKC-ε (24 hrs), the “phospho-PKC immunoreactivity during pharmacologic down-regulation” value is reported as “drastically reduced”. Further, the “PKC-ε phosphorylation/activation (phospho-PKC band pattern)” value at PKC-ε (NE 10 μM or PMA 100 nM for 5 min) was “slower mobility, more-highly phosphorylated species”. In addition, in the assay with AKT (5 min, PMA 100 nM, NE 10 μM), the “basal AKT phosphorylation after acute treatment” value is listed as “reduce basal AKT phosphorylation”. In the assay on AKT (24 hr, relative to control cultures), the “basal AKT phosphorylation after 24 hr treatment” value is “reduced”.

For `OC[C@@H](O)[C@@H](O)[C@H](O)[C@@H](O)CO` [sorbitol, reference compound], in the assay on p38-MAPK, the “magnitude of p38-MAPK activation” value was “strong activation”. The “magnitude of JNK activation” value with JNK was “strong activation”.

With EGF: epidermal growth factor, in the assay with AKT (EGF 50 ng/ml, 5 min), the “AKT activation in control cultures” value is recorded as “robust”.

As for `COc1cc2ncnc(Nc3cccc(Cl)c3)c2cc1OC` [AG1478, reference compound], in the assay with ERK1/2 (AG1478 2 μM, EGF 50 ng/ml 5 min), the “effect on EGF receptor-mediated ERK phosphorylation” value is listed as “effectively blocks”. Besides, in the assay with ERK1/2, the “effect on ERK phosphorylation/activation by rPMT” value is “only a very minor reduction”. Also, in assay [1], the “effect on ERK activation by EGF” value is “marked effect to prevent ERK activation” and the “effect on ERK activation by rPMT” value was “marked effect to prevent ERK activation”.
